Assay results taken from US20190151403A1, “NOVEL CYCLOSPORIN DERIVATIVES AND USES THEREOF” (S&T Global Inc., priority 2016, published 2019).
Where two headings read alike, the source gives them in different places. Values belong to the compound of their own block, whether it stands above or below them. Starred links: 1 amine or outer side, 2 acyl side, 3 side chain; linkers in the order of their positions; H or OH if unused. Non-standard residues stand in square brackets, D forms with d. Residues, ends and D or L forms follow the SMILES beside them. ξ: configuration not given here. *: point of attachment. NMeThr(4R-Me,4-(CH2)6NHAc) = CN[C@H](C(=O)O)[C@H](O)[C@H](C)CCCCCCNC(C)=O; MeBmt = C/C=C/C[C@@H](C)[C@@H](O)[C@H](NC)C(=O)O; X1 = CCN(CC)CCS[C@H](C(=O)[*:2])N(C)[*:1]; NMeIle(3ξ) = CCC(C)[C@H](NC)C(=O)O; NMeL = CN[C@@H](CC(C)C)C(=O)O; NMeV = CN[C@H](C(=O)O)C(C)C; dNMeC = CN[C@H](CS)C(=O)O; dNMeS = CN[C@H](CO)C(=O)O; dNMeA = CN[C@H](C)C(=O)O; Abu = CC[C@H](N)C(=O)O; Butyl(4-OH) = OCCCC*

Legend:
Cyclophilin D (CyPD) = Cyclophilin D (CyPD) (Homo sapiens, UniProt P30405); experiment: Cyclophilin D PPIase inhibition assay; type: biochemical
[1] = test system: HCV replicon in cell line ET (luc-ubi-neo/ET), Huh7 human hepatoma cell line; experiment: HCV subgenomic replicon assay (luciferase end point); type: cell-based
Protocol: Anti-HCV activity of cyclosporine derivatives were evaluated in the HCV subgenomic replicon assay. The assay use the cell line ET (luc-ubi-neo/ET), which is a Huh7 human hepatoma cell line harboring an HCV replicon with a stable luciferase (Luc) reporter. HCV RNA replication was assessed by quantifying HCV replicon-derived luciferase activity. The antiviral activity of cyclosporine analogs were evaluated after drug treatment to derive EC50 and EC90 values by using the luciferase end point (Krieger, N., et al., 2001, J. Viral. 75, 4614-4624; Pietschmann, T., et al., 2002, J. Viral. 76, 4008-4021; each of which is incorporated herein by reference). Cytotoxicity was assessed in parallel.

Human recombinant CypA = molecular target: T1, Human recombinant CypA (Homo sapiens, UniProt P62937); experiment: Cyclophilin A PPIase inhibition, α-chymotrypsin-coupled assay; type: biochemical; conditions: 10 nM human recombinant CypA, 5° C, succinyl-AAPF-pNA substrate
T1 construct: purchased Atgen
Protocol: Inhibition of CyPA isomerase activity was assessed using the α-chymotrypsin-coupled assay adapted to a 96-well plate format. Human recombinant CypA (Atgen) was dissolved to 10 nM in isomerase buffer (50 mM Hepes, 100 mM NaCl, 1 mg/ml bovine serum albumin, 1 mg/ml a-chymotrypsin; pH 8). Succinyl-AAPF-pNA peptide substrate (Sigma) was dissolved to 3.2 mM in dried LiCl/trifluoroethanol. […] All solutions were equilibrated, and reactions conducted at 5° C. Reactions were initiated by mixing 95 μL reaction mix with 5 μL peptide preloaded in multiple wells of 96-well plates and measuring OD405 nm in each well at 6-sec intervals for 6 min using a BMG Polarstar Galaxy plate reader. Data were fitted with Graphpad Prism 6.0 to obtain first-order rate constants. Enzyme catalyzed rate constants were calculated by subtracting the rate constant from uncatalyzed reactions (no CypA), and the catalytic rate constants plotted as a function of inhibitor concentration to obtain IC50s (see […] et al., 2015, PLOS ONE).

HCV = conditions: reported by Hopkins et al. 2010; read-out: in vitro anti-HCV activity (EC50); cited from earlier work
[2] = test system: multi-genotype HCV GT1a to 4a; conditions: cited from earlier work
cyclophilin A = cyclophilin A (Homo sapiens, UniProt P62937); conditions: published, Gallay et al. 2016; read-out: cyclophilin binding EC50 for cyclophilin A; cited from earlier work
[3] = Hepatitis C virus, Huh-7, read-out: Antiviral activity
[4] = HCV subgenomic replicon, Huh7 ET cells, luciferase end point, read-out: Antiviral activity

Cyclophilin D (CyPD), sequence (P30405 30-207, species assumed): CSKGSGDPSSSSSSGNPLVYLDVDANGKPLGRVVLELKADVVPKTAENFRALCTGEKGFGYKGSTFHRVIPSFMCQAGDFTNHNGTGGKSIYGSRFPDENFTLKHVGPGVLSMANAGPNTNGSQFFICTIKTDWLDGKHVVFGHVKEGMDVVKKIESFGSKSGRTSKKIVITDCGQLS
T1 sequence (P62937 whole entry): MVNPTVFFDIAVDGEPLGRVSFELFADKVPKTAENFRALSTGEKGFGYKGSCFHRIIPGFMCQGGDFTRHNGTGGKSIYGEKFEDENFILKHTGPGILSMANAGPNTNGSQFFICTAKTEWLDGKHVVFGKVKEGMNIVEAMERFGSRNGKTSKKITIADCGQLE
cyclophilin A, sequence (P62937 whole entry): as above

Compound: C/C=C/C[C@@H](C)[C@@H](O)[C@H]1C(=O)N[C@@H](CC)C(=O)N(C)[C@H](SCCN(C)C)C(=O)N(C)[C@@H](CC(C)(C)O)C(=O)N[C@@H](C(C)C)C(=O)N(C)[C@@H](CC(C)C)C(=O)N[C@@H](C)C(=O)N[C@H](C)C(=O)N(C)[C@@H](CC(C)C)C(=O)N(C)[C@@H](CC(C)C)C(=O)N(C)[C@@H](C(C)C)C(=O)N1C
- EC50 (Cyclophilin D (CyPD)): 4 to 10 nM
- IC50 [1, 3]: 35 to 90 nM

Compound: C/C=C/C[C@@H](C)[C@@H](O)[C@H]1C(=O)N[C@@H](CC)C(=O)N(C)[C@H](SCCN(CC)CC)C(=O)N(C)[C@@H](C(C)CC)C(=O)N[C@@H](C(C)C)C(=O)N(C)[C@@H](CC(C)C)C(=O)N[C@@H](C)C(=O)N[C@H](C)C(=O)N(C)[C@@H](CC(C)C)C(=O)N(C)[C@@H](CC(C)C)C(=O)N(C)[C@@H](C(C)C)C(=O)N1C (stereo partly drawn) [(R)-2-(N,N-Diethylamino)ethylthio-Sar]-3-[N-MeIle]-4-cyclosporin] (cyclo(A[dA][NMeL][NMeL][NMeV][MeBmt][Abu][X1][NMeIle(3ξ)]V[NMeL]))
- IC50 [1, 4]: < 35 nM

Compound: C/C=C/C[C@@H](C)[C@@H](O)[C@H]1C(=O)N[C@@H](CC)C(=O)N(C)[C@H](C)C(=O)N(CC)[C@@H](C(C)C)C(=O)N[C@@H](C(C)C)C(=O)N(C)[C@@H](CC(C)C)C(=O)N[C@@H](C)C(=O)N[C@H](C)C(=O)N(C)[C@@H](CC(C)C)C(=O)N(C)[C@@H](CC(C)C)C(=O)N(C)[C@@H](C(C)C)C(=O)N1C [Alisporivir]
- EC50 (Cyclophilin D (CyPD)): < 4 nM
- IC50 [1, 3]: < 35 nM
- IC50 (Human recombinant CypA): < 4 nM

Compound: C/C=C/C[C@@H](C)[C@@H](O)[C@H]1C(=O)N[C@@H](CC)C(=O)N(C)[C@H](SCCN(C)C)C(=O)N(C)[C@@H](CC(C)(C)O)C(=O)N[C@@H](C(C)C)C(=O)N(C)[C@@H](CC(C)C)C(=O)N[C@@H](C)C(=O)N[C@H](C)C(=O)N(C)[C@@H](CC(C)C)C(=O)N(C)[C@@H](CC(C)C)C(=O)N(C)[C@@H](C(C)C)C(=O)N1C [SCY-635]
- EC50 (HCV): 100 nM

Compound: CC=CCC(C)C(O)C1C(=O)NC(CC)C(=O)N(C)C(CSCCCCO)C(=O)N(C)C(CC(C)(C)O)C(=O)NC(C(C)C)C(=O)N(C)C(CC(C)C)C(=O)NC(C)C(=O)NC(C)C(=O)N(C)C(CC(C)C)C(=O)N(C)C(CC(C)C)C(=O)N(C)C(C(C)C)C(=O)N1C (centres unmarked) [STG-175]
- cross-resistance with direct anti-viral agents (DAAs) [2]: No cross-resistance is observed
- viral replication rebound after cessation of drug treatment ([2]; compared with Sofosbuvir): no viral replication rebound is observed
- EC50 ([2]; multi-genotype HCV GT1a to 4a, published, Gallay et al. 2016, read-out: anti-HCV activity EC50): 11.5 to 38.9 nM
- EC50 (cyclophilin A): 0.6 nM

Compound: CC[C@@H]1NC(=O)[C@H]([C@H](O)[C@H](C)CCCCCCNC(C)=O)N(C)C(=O)[C@H](C(C)C)N(C)C(=O)[C@H](CC(C)C)N(C)C(=O)[C@H](CC(C)C)N(C)C(=O)[C@@H](C)NC(=O)[C@H](C)NC(=O)[C@H](CC(C)C)N(C)C(=O)[C@H](C(C)C)NC(=O)[C@H](CC(C)C)N(C)C(=O)[C@@H](C)N(C)C1=O [[8-(2-Acetamidoethyl)-6,7-dihydro-MeBmt]-1-[(R)-Methyl]-3-cyclosporin] (cyclo(A[dA][NMeL][NMeL][NMeV][NMeThr(4R-Me,4-(CH2)6NHAc)][Abu][dNMeA][NMeL]V[NMeL]))
- IC50 [1, 3]: < 35 nM

Compound: CC[C@@H]1NC(=O)[C@H]([C@H](O)[C@H](C)CCCCCCNC(C)=O)N(C)C(=O)[C@H](C(C)C)N(C)C(=O)[C@H](CC(C)C)N(C)C(=O)[C@H](CC(C)C)N(C)C(=O)[C@@H](C)NC(=O)[C@H](C)NC(=O)[C@H](CC(C)C)N(C)C(=O)[C@H](C(C)C)NC(=O)[C@H](CC(C)C)N(C)C(=O)[C@@H](CO)N(C)C1=O [[8-(2-Acetamidoethyl)-6,7-dihydro-MeBmt]-1-[(R)-hydroxymethyl-Sar]-3-cyclosporin] (cyclo(A[dA][NMeL][NMeL][NMeV][NMeThr(4R-Me,4-(CH2)6NHAc)][Abu][dNMeS][NMeL]V[NMeL]))
- IC50 [1, 3]: < 35 nM

Compound: CC[C@@H]1NC(=O)[C@H]([C@H](O)[C@H](C)CCCCCCNC(C)=O)N(C)C(=O)[C@H](C(C)C)N(C)C(=O)[C@H](CC(C)C)N(C)C(=O)[C@H](CC(C)C)N(C)C(=O)[C@@H](C)NC(=O)[C@H](C)NC(=O)[C@H](CC(C)C)N(C)C(=O)[C@H](C(C)C)NC(=O)[C@H](CC(C)C)N(C)C(=O)[C@@H](CSCCCCO)N(C)C1=O [[8-(2-Acetamidoethyl)-6,7-dihydro-MeBmt]-1-[(S)-(4-hydroxybutylthio)methyl-Sar]-3-cyclosporin] (cyclo(A[dA][NMeL][NMeL][NMeV][NMeThr(4R-Me,4-(CH2)6NHAc)][Abu][dNMeC](Butyl(4-OH))[NMeL]V[NMeL]))
- EC50 (Cyclophilin D (CyPD)): < 4 nM
- IC50 [1, 3]: < 35 nM
- IC50 (Human recombinant CypA): < 4 nM

Compound: CC[C@@H]1NC(=O)[C@H]([C@H](O)[C@H](C)CCCCCCNC(C)=O)N(C)C(=O)[C@H](C(C)C)N(C)C(=O)[C@H](CC(C)C)N(C)C(=O)[C@H](CC(C)C)N(C)C(=O)[C@@H](C)NC(=O)[C@H](C)NC(=O)[C@H](CC(C)C)N(C)C(=O)[C@H](C(C)C)NC(=O)[C@H](CC(C)(C)O)N(C)C(=O)CN(C)C1=O [[8-(2-Acetamidoethyl)-6,7-dihydro-MeBmt]-1-[(γ-hydroxy)-N-MeLeu]-4-cyclosporin]
- IC50 [1, 3]: < 35 nM

Compound: CC[C@@H]1NC(=O)[C@H]([C@H](O)[C@H](C)CCCCCCNC(C)=O)N(C)C(=O)[C@H](C(C)C)N(C)C(=O)[C@H](CC(C)C)N(C)C(=O)[C@H](CC(C)C)N(C)C(=O)[C@@H](C)NC(=O)[C@H](C)NC(=O)[C@H](CC(C)C)N(C)C(=O)[C@H](C(C)C)NC(=O)[C@H](CC(C)C)N(C)C(=O)CN(C)C1=O [[8-(2-Acetamidoethyl)-6,7-dihydro-MeBmt]-1-cyclosporin]
- IC50 [1, 3]: < 35 nM

- EC50 (Cyclophilin D (CyPD)): < 4 nM
- IC50 (Human recombinant CypA): < 4 nM
Compound: C/C=C/C[C@@H](C)[C@@H](O)[C@H]1C(=O)N[C@@H](CC)C(=O)N(C)[C@H](CSCCCCO)C(=O)N(C)[C@@H](CC(C)(C)O)C(=O)N[C@@H](C(C)C)C(=O)N(C)[C@@H](CC(C)C)C(=O)N[C@@H](C)C(=O)N[C@H](C)C(=O)N(C)[C@@H](CC(C)C)C(=O)N(C)[C@@H](CC(C)C)C(=O)N(C)[C@@H](C(C)C)C(=O)N1C [[(S)-(4-Hydroxylbutylthio)methyl-Sar]-3-[(γ-hydroxy)-N-MeLeu]-4-cyclosporin]

Compound: C/C=C/C[C@@H](C)[C@@H](O)[C@H]1C(=O)N[C@@H](CC)C(=O)N(C)CC(=O)N(C)[C@@H]([C@@H](C)CC)C(=O)N[C@@H](C(C)C)C(=O)N(C)[C@@H](CC(C)C)C(=O)N[C@@H](C)C(=O)N[C@H](C)C(=O)N(C)[C@@H](CC(C)C)C(=O)N(C)[C@@H](CC(C)C)C(=O)N(C)[C@@H](C(C)C)C(=O)N1C [[N-MeIle]-4-cyclosporin (SDZ-NIM-811), N-MeIle-4-Cyclosporin]
- IC50 [1, 3]: 90 to 250 nM

Compound: C/C=C/C[C@@H](C)[C@@H](O)[C@H]1C(=O)N[C@@H](CC)C(=O)N(C)CC(=O)N(C)[C@@H](C(C)C)C(=O)N[C@@H](C(C)C)C(=O)N(C)[C@@H](CC(C)C)C(=O)N[C@@H](C)C(=O)N[C@H](C)C(=O)N(C)[C@@H](CC(C)C)C(=O)N(C)[C@@H](CC(C)C)C(=O)N(C)[C@@H](C(C)C)C(=O)N1C [[N-MeVal]-4-cyclosporin (SDZ 220-384), N-MeVal-4-Cyclosporin]
- IC50 [1, 4]: 90 to 250 nM

Compound: [8-(2-Acetamidoethyl)-6,7-dihydro-MeBmt]-1-[(S)-(4-hydroxybutylthio)methyl-Sar]-3-[(γ-hydroxy)-N-MeLeu]-4-cyclosporin
- IC50 [1, 4]: < 35 nM
